In ChEMBL document CHEMBL1129165, “6-Deoxy-6-hydroxymethyl scyllo-inositol 1,2,4-trisphosphate: A potent agonist at the inositol 1,4,5-trisphosphate receptor” (Bioorg Med Chem Lett, 1996) one finds EC50 data, which are given here for three compounds.

Structures are written as SMILES. pEC50: −log10 of the molar value.

A word on the pEC50: it is the EC50 on a negative log10 scale, so that one unit is a factor of ten.

The species entered for the experiment is Oryctolagus cuniculus. The experiment can be described thus: Compound was tested for its ability to release [Ca2+] from permeabilised rabbit platelets. It is filed as functional, organism-based.

In the case of `O=P(O)(O)OC1[C@@H](O)C(CO)C(OP(=O)(O)O)[C@H](OP(=O)(O)O)[C@@H]1O` (stereo partly drawn), the pEC50 (Oryctolagus cuniculus) was 6.36.
For the compound `O=P(O)(O)O[C@@H]1[C@@H](O)[C@@H](O)[C@@H](OP(=O)(O)O)C(O)[C@H]1OP(=O)(O)O` (single isomer, unassigned) [INS(1,4,5)P3], the pEC50 was 6.40.
On the same count and under the same terms, the result for `O=P(O)(O)O[C@H]1C(O)[C@@H](OP(=O)(O)O)[C@H](OP(=O)(O)O)[C@@H](O)C1O` (single isomer, unassigned) [INS(1,4,5)P3] reads 5.78.
